Measured values from EP4653437A2 (Innovo Therapeutics Inc., priority 2023, dated 2024).

What was measured:
human 15-PGDH = molecular target: T1, human 15-PGDH (Homo sapiens, UniProt P15428); assay: Evaluation of 15-PGDH inhibitory activity (fluorescence enzyme assay, NAD+/PGE2); format: biochemical; details: human 15-PGDH enzyme, fluorescence Vmax
T1 construct: purchased R&D System 5660-DH
T1 sequence (P15428 1-266): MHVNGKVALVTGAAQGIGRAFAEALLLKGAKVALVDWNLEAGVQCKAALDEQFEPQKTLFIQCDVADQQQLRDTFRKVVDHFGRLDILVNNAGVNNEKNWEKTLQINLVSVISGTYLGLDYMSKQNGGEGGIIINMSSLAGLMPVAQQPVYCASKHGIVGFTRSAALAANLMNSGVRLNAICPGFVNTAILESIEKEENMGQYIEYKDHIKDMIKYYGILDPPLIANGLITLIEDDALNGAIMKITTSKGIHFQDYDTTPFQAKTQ
Method: 15-PGDH inhibition activity of Example compounds was measured as follows. 6.7 ng of human 15-PGDH (R&D System# 5660-DH) enzyme (10 µL) was added to a black 96 well plate, 60 µL of buffer (50 mM Tris-HCl, pH 7.5, 0.01% Tween 20) was added, and 10 µL of 200 µM β-Nicotinamide adenine dinucleotide sodium salt (Sigma, Cat# N0632-5G) was added. 10 µL of (10x) compound solution in DMSO was added and reacted for 10 minutes at room temperature.

A549 cells = assay: Measurement of PGE2-increasing activity in A549 cells (IL-1β stimulated, PGE2 quantified in supernatant); format: cell-based; details: Homo sapiens, 24 h; concentration of 1 µM of each compound; IL-1β treated A549 cells; read-out: Increased PGE2 production in A549 cells
Outline: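 PGE2 secreted into the supernatant was measured by immunoassay 24 h after treatment. Before treatment, A549 cells were cultured 24 h in 10% FBS F12K, washed, and placed in serum-free medium containing compound (DMSO 0.1% final) plus or minus IL-1β, incubated at 37 °C, 5% CO2.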

SMILES | IC50 (human 15-PGDH) | fold induction at 1 µM (A549 cells)
O=C(c1cnn2c(-c3ccc(N4C5CCC4CC5)nc3)cccc12)N1CCCCC1 [Example 217] | ≤ 100 nM | > 1.5
Nc1n[nH]c2cc(-c3cccc4c(C(=O)N5CCCCC5)cnn34)ccc12 [Example 309, [7-(3-amino-1H-indazol-6-yl)pyrazolo[1,5-a]pyridin-3-yl]-(1-piperidyl)methanone] | ≤ 100 nM | > 1.5
O=C(Cc1cncnc1)Nc1cncc(-c2cccc3c(C(=O)N4CCCCC4)cnn23)c1 [Example 403, N-(5-(3-(piperidine-1-carbonyl)pyrazolo[1,5-a]pyridin-7-yl)pyridin-3-yl)-2-(pyrimidin-5-yl)acetamide] | ≤ 100 nM | > 1.5
Cc1noc(C)c1-c1ncc(-c2cccc3c(C(=O)N4CCCCC4)cnn23)cn1 [Example 399, [7-[2-(3,5-dimethylisoxazol-4-yl)pyrimidin-5-yl]pyrazolo[1,5-a]pyridin-3-yl]-(1-piperidyl)methanone] | ≤ 100 nM | > 1.5
O=C(NCC1CC1)c1cccc(-c2cccc3c(C(=O)N4CCCCC4)cnn23)c1 [Example 32, N-(cyclopropylmethyl)-3-(3-(piperidine-1-carbonyl)pyrazolo[1,5-a]pyridin-7-yl)benzamide] | ≤ 100 nM | < 1.5
O=C1NCc2cc(-c3cccc4c(C(=O)N5CCCCC5)cnn34)ccc21 [Example 143, 5-(3-(piperidine-1-carbonyl)pyrazolo[1,5-a]pyridin-7-yl)isoindolin-1-one] | ≤ 100 nM | > 1.5
N#CCCNC(=O)c1cncc(-c2cccc3c(C(=O)N4CCCCC4)cnn23)c1 [Example 51, N-(2-cyanoethyl)-5-(3-(piperidine-1-carbonyl)pyrazolo[1,5-a]pyridin-7-yl)nicotinamide] | ≤ 100 nM | > 1.5
O=C(c1cnn2c(-c3cnc(-c4noc(=O)[nH]4)c(F)c3)cccc12)N1CCCCC1 [Example 247, 3-[3-fluoro-5-[3-(piperidine-1-carbonyl)pyrazolo[1,5-a]pyridin-7-yl]-2-pyridyl]-4H-1,2,4-oxadiazol-5-one] | ≤ 100 nM | > 1.5
Cc1nc(-c2cc(F)cc(-c3cccc4c(C(=O)N5CCCCC5)cnn34)c2)no1 [Example 322, (7-(3-fluoro-5-(5-methyl-1,2,4-oxadiazol-3-yl)phenyl)pyrazolo[1,5-a]pyridin-3-yl)(piperidin-1-yl)methanone] | ≤ 100 nM | > 1.5
O=C(c1cnn2c(-c3cnn(Cc4noc(=O)[nH]4)c3)cccc12)N1CCCCC1 [Example 396, 3-((4-(3-(piperidine-1-carbonyl)pyrazolo[1,5-a]pyridin-7-yl)-1H-pyrazol-1-yl)methyl)-1,2,4-oxadiazol-5(4H)-one] | ≤ 100 nM | > 1.5
O=C(Nc1ccc(-c2cccc3c(C(=O)N4CCCCC4)cnn23)cc1)C1CC1 [Example 100, N-(4-(3-(piperidine-1-carbonyl)pyrazolo[1,5-a]pyridin-7-yl)phenyl)cyclopropanecarboxamide] | ≤ 100 nM | > 1.5
CN1CCc2ncc(-c3cccc4c(C(=O)N5CCCCC5)cnn34)cc2C1=O [Example 199, 6-methyl-3-(3-(piperidine-1-carbonyl)pyrazolo[1,5-a]pyridin-7-yl)-7,8-dihydro-1,6-naphthyridin-5(6H)-one] | ≤ 100 nM | > 1.5
COCCCNc1ccc(-c2cccc3c(C(=O)N4CCCCC4)cnn23)cn1 [Example 107, (7-(6-((3-methoxypropyl)amino)pyridin-3-yl)pyrazolo[1,5-a]pyridin-3-yl)(piperidin-1-yl)methanone] | ≤ 100 nM | > 1.5
O=C(c1cnn2c(-c3ccc(-c4noc(=O)[nH]4)nc3)cccc12)N1CCCCC1 [Example 117, 3-(5-(3-(piperidine-1-carbonyl)pyrazolo[1,5-a]pyridin-7-yl)pyridin-2-yl)-1,2,4-oxadiazol-5(4H)-one] | ≤ 100 nM | > 1.5
Cc1nc(-c2ncc(-c3cccc4c(C(=O)N5CCCCC5)cnn34)cc2F)no1 [Example 263, [7-[5-fluoro-6-(5-methyl-1,2,4-oxadiazol-3-yl)-3-pyridyl]pyrazolo[1,5-a]pyridin-3-yl]-(1-piperidyl)methanone] | ≤ 100 nM | > 1.5
Cc1nc(-c2cc(-c3cccc4c(C(=O)N5CCCCC5)cnn34)ccc2F)no1 [Example 276, [7-[4-fluoro-3-(5-methyl-1,2,4-oxadiazol-3-yl)phenyl]pyrazolo[1,5-a]pyridin-3-yl]-(1-piperidyl)methanone] | ≤ 100 nM | > 1.5
O=C(c1cnn2c(-c3ccc(Cl)nc3)cccc12)N1CCCCC1 [Example 314, (7-(6-chloropyridin-3-yl)pyrazolo[1,5-a]pyridin-3-yl)(piperidin-1-yl)methanone] | ≤ 100 nM | > 1.5
CCCCC(=O)c1cnn2c(-c3cnc4ccccc4c3)cccc12 [Example 151, 1-(7-(quinolin-3-yl)pyrazolo[1,5-a]pyridin-3-yl)pentan-1-one] | ≤ 100 nM | > 1.5

The next lines start with results.

IC50 (human 15-PGDH) | SMILES | fold induction at 1 µM (A549 cells)
≤ 100 nM | O=C(c1cnn2c(-c3ccc(-c4ccsc4)cc3)cccc12)N1CCCCC1 [Example 347, 1-piperidyl-[7-[4-(3-thienyl)phenyl]pyrazolo[1,5-a]pyridin-3-yl]methanone] | < 1.5
≤ 100 nM | O=C(NCC1CC1)c1cncc(-c2cccc3c(C(=O)N4CCCCC4)cnn23)c1 [Example 46, N-(cyclopropylmethyl)-5-(3-(piperidine-1-carbonyl)pyrazolo[1,5-a]pyridin-7-yl)nicotinamide] | > 1.5
≤ 100 nM | CN(C)c1cc(-c2cccc3c(C(=O)N4CCCCC4)cnn23)ccc1C#N [Example 23, 2-(dimethylamino)-4-(3-(piperidine-1-carbonyl)pyrazolo[1,5-a]pyridin-7-yl)benzonitrile] | > 1.5
≤ 100 nM | Cc1ncc(-c2cc(-c3cccc4c(C(=O)N5CCCCC5)cnn34)cc(N3CCOCC3)n2)cn1 [Example 377, (7-(2-(2-methylpyrimidin-5-yl)-6-morpholinopyridin-4-yl)pyrazolo[1,5-a]pyridin-3-yl)(piperidin-1-yl)methanone] | > 1.5
≤ 100 nM | O=C(c1cnn2c(-c3ccc([N+](=O)[O-])cc3)cccc12)N1CCC(F)CC1 [Example 157, (4-fluoropiperidin-1-yl)(7-(4-nitrophenyl)pyrazolo[1,5-a]pyridin-3-yl)methanone] | > 1.5
≤ 100 nM | O=C(c1cnn2c(-c3ccc(F)nc3F)cccc12)N1CCCCC1 [Example 266, (7-(2,6-difluoropyridin-3-yl)pyrazolo[1,5-a]pyridin-3-yl)(piperidin-1-yl)methanone] | > 1.5
≤ 100 nM | O=C(c1cnn2c(-c3ccnc(N4CC(F)C4)c3)cccc12)N1CCCCC1 [Example 257, (7-(2-(3-fluoroazetidin-1-yl)pyridin-4-yl)pyrazolo[1,5-a]pyridin-3-yl)(piperidin-1-yl)methanone] | < 1.5
≤ 100 nM | O=C(Nc1ccc(-c2cccc3c(C(=O)N4CCCCC4)cnn23)cc1)c1cccnc1 [Example 101, N-(4-(3-(piperidine-1-carbonyl)pyrazolo[1,5-a]pyridin-7-yl)phenyl)nicotinamide] | > 1.5
≤ 100 nM | O=C(c1cnn2c(-c3ccc(-c4cnc(O)nc4)cc3)cccc12)N1CCCCC1 [Example 306, [7-[4-(2-hydroxypyrimidin-5-yl)phenyl]pyrazolo[1,5-a]pyridin-3-yl]-(1-piperidyl)methanone] | > 1.5
≤ 100 nM | CN(C)C(=O)c1ccc(-c2cccc3c(C(=O)N4CCCCC4)cnn23)cc1 [Example 59, N,N-dimethyl-4-(3-(piperidine-1-carbonyl)pyrazolo[1,5-a]pyridin-7-yl)benzamide] | > 1.5
≤ 100 nM | COc1ccc(-c2cccc3c(C(=O)N4CCCCC4)cnn23)cc1C(F)(F)F [Example 20, (7-(4-methoxy-3-(trifluoromethyl)phenyl)pyrazolo[1,5-a]pyridin-3-yl)(piperidin-1-yl)methanone] | > 1.5
≤ 100 nM | N#CCCNC(=O)c1cccc(-c2cccc3c(C(=O)N4CCCCC4)cnn23)c1 [Example 36, N-(2-cyanoethyl)-3-(3-(piperidine-1-carbonyl)pyrazolo[1,5-a]pyridin-7-yl)benzamide] | > 1.5
≤ 100 nM | Nc1noc2cc(-c3cccc4c(C(=O)N5CCCCC5)cnn34)ccc12 [Example 320, [7-(3-amino-1,2-benzoxazol-6-yl)pyrazolo[1,5-a]pyridin-3-yl]-(1-piperidyl)methanone] | > 1.5
